Legend:
[1] = tested on: whole-cell calcium channel currents in isolated cockroach neurons; settings: 0.1 µM; cited from earlier work
[2] = tested on: bee brain calcium channel (ICa); format: cell-based, Apis mellifera
[3] = tested on: mouse sensory neuron ICa; format: cell-based
[4] = tested on: insect versus vertebrate calcium channels

Substance	inhibition of whole-cell calcium channel currents [1]	concentration for maximum inhibition of ICa [2]	EC50 ([2]; read-out: EC50 for inhibition of ICa)	maximum ICa inhibition [3]	EC50 ([3]; read-out: EC50 for inhibition of a component of ICa)	preference for insect versus vertebrate calcium channels [4]
omega-atracotoxin-Hv1a [ω-ACTX-Hv1a]	25±10%					
ω-agatoxin-IVA (KKKCIAKDYGRCKWGGTPCCRGRGCICSIMGTNCECKPRLIMEGLGLA)		> 100 nM	10 nM	~40%	~20 nM	2 fold
